Holding throughout (assay type): physicochemical
Data set [1] is described as follows: In vitro polymerization test of collagen/antibiotic compositions injected into WFI. To be noted: 27-gauge needle. Here is the method: 50 mg lyophilized and powdered (by mortar and pestle) Voriconazole was mixed with 200 μL of in situ polymerizable collagen solution prepared according to Example 1 by passing the powder into the collagen solution using two syringes attached with a female-female adaptor. The mixture appeared clear and transparent (FIG. 4A). Aliquots were injected into water for injection (WFI) using a 27-gauge needle. A control sample composed of in situ polymerizable collagen solution only was also injected into WFI.
Two other antibiotics, Cefuroxime and Vigamox, were mixed to in situ polymerizable collagen using the same method used for adding Voriconazole to the collagen to form a collagen/antibiotic composition, respectively. […] The appearance of the mixture depends on the solubility of the antibiotics.

Data set [2] can be described thus: In vitro release of Compstatin from in situ polymerizable collagen. Here is the method: Delivery of a complement peptide-Compstatin from in situ polymerizable collagen prepared according to Example 1 was studied in vitro. In vitro release was measured for 6 weeks to ascertain the optimum collagen formulation.
A short description of data set [3]: In vitro release of latanoprost from in situ polymerizable collagen gels into physiological saline (HPLC). Here is the method: Latanoprost (13,14-dihydro-17-phenyl-18,19,20-trinor-prostaglandin F2a-1-isopropyl ester) was obtained from Sigma-Aldrich. Soluble, pepsin digested, bovine collagen for drug delivery formulations was purchased from Advanced Biomatrix. In situ polymerizable collagen was prepared according to Example 1 by extensive dialysis of salt precipitated collagen against 0.035M EDTA with step-wise increase in pH to 7.5. Latanoprost was dissolved in 95% ethanol and added to polymerizable collagen solution to provide gel depots containing 250 μg latanoprost/100 μL collagen. The solutions were incubated in 1.0 mL of physiological saline at 37° C. The entire 1.0 mL volume was removed at time periods ranging from 1 day to 174 days and replaced with 1.0 mL of fresh saline. Latanoprost concentration in saline aliquots was measured by HPLC analysis (Millennium Research Laboratories).
In situ polymerizable collagen gels provided sustained in vitro release of Latanoprost for more than 30 days.

The nature of data set [4]: Short-term controlled release of lidocaine from collagen gel into 0.9% NaCl (HPLC). To be noted: gel in 0.9% NaCl, 37° C., 80 RPM; FIG. 6.
Description: One third of the same volume of collagen solution of a lidocaine sterile solution (0.9% Lidocaine, 7% Mannitol, 80 mM EDTA-2Na, 0.05M Na2CO3 and 0.05M NaHCO3) was added to collagen. 2 mL final mixed collagen solution was incubated under 37° C. to form a gel and put into 20 mL 37° C. 0.9% NaCl solution with a stir bar stirring at 80 RPM. At 10 min, 20 min, 30 min, 60 min, 90 min, and 120 min, 2 mL NaCl solution was collected to test lidocaine concentration and additional 2 mL 0.9% NaCl solution was replenished. HPLC method was used to measured lidocaine concentration and calculated to the percentage release of the lidocaine in collagen gel.
Data set [5] in a line: Film formation of sprayed in situ polymerizable collagen on skin or skin wounds. To be noted: EGF 5,000-20,000 IU/mL. Here is the method: The sprayable in situ polymerizable collagen was prepared by mix in situ polymerizable collagen prepared in Example 1 with PBS at volume ratio of 2:1. After mixing by stirring at 50 rpm for 10 min, the gel was centrifuge to remove the bubbles. The sprayable in situ polymerizable collagen was less viscous with better flowability and placed in a spray bottle and still remained transparent under room temperature. […] The in situ polymerizable collagen solution with EGF was sprayed to skin wounds through spray bottle and formed a film to cover the wound within 120 sec, providing a wet healing environment and continuous EGF delivery to accelerate skin healing or improve skin condition.

With `CO/N=C(\C(=O)N[C@@H]1C(=O)N2C(C(=O)O)=C(COC(N)=O)CS[C@H]12)c1ccco1` [Cefuroxime], in data set [1], the collagen fibril formation result is “do not blocking the fibril formation”.

As for `CC[C@H](C)[C@H](N)C(=O)N[C@H]1CSSC[C@@H](C(=O)N[C@H](C(N)=O)[C@@H](C)O)NC(=O)[C@H](CCCN=C(N)N)NC(=O)[C@H](Cc2cnc[nH]2)NC(=O)[C@H](Cc2cnc[nH]2)NC(=O)CNC(=O)[C@H](Cc2c[nH]c3ccccc23)NC(=O)[C@H](CC(=O)O)NC(=O)[C@H](CCC(N)=O)NC(=O)[C@H](C(C)C)NC(=O)[C@H](C(C)C)NC1=O` [Compstatin], in data set [2], the “duration of initial burst” value worked out at 4 days and the “duration of sustained release” value amounted to 6 weeks. Moreover, the release kinetics result in data set [2] (measured for 6 weeks) is “bi-phasic release kinetics”.

As to `CC(C)OC(=O)CCC/C=C\C[C@@H]1[C@@H](CC[C@@H](O)CCc2ccccc2)[C@H](O)C[C@@H]1O` [Latanoprost, 13,14-dihydro-17-phenyl-18,19,20-trinor-prostaglandin F2a-1-isopropyl ester], in data set [3] (in situ polymerizable collagen gels, saline 37° C.), the “duration of sustained in vitro release of Latanoprost” value is given as “more than 30 days”. Moreover, the “initial release of Latanoprost” value is “large initial release” in data set [3] (polymerizable gels added directly to saline solution) and “reduced initial release” in data set [3] (polymerizable gels partially pre-polymerized). In data set [3] (polymerizable gels added directly to saline solution, 250 μg latanoprost/100 μL collagen, 37° C.), the “sustained release of Latanoprost, average” value amounted to 0.54 µg/day. Besides, the “average sustained release rate of Latanoprost” value in data set [3] (polymerizable gels partially pre-polymerized before placing in solution, 250 μg latanoprost/100 μL collagen, 37° C.) came out at 1.4 µg/day.

In the case of `CCN(CC)CC(=O)Nc1c(C)cccc1C` [lidocaine], the “controlled release of lidocaine” value in data set [4] is given as “within two hours”.

Take “EGF: Epidermal Growth Factor lyophilized powder dissolved in in situ polymerizable collagen solution, 5,000-20,000 IU/mL”: in data set [5], the “time to form a film covering the wound” value is not above 120 s.

Source of the values: patent US20250213697A1, “INJECTABLE AND/OR SPRAYABLE, IN SITU POLYMERIZABLE COLLAGEN COMPOSITIONS FOR SUSTAINED DELIVERY OF THERAPEUTICS” (priority 2023, published 2025).
